Laboratory results as given in ChEMBL document CHEMBL5058646 (2022).

Molecular target: B-cell lymphoma 6 protein (Homo sapiens, UniProt P41182)
Assay: TR-FRET; call rule not given here

IC50: 21 µM (not active)
SMILES: C[C@@H]1CN(c2nccc(Nc3ccc4c(c3)n(CCC(C)(C)O)c(=O)n4C)n2)C[C@H](C)C1(F)F
